Assay results taken from paper PMC9143043, “Synthesis and Biological Evaluation of 5′-O-Fatty Acyl Ester Derivatives of 3′-Fluoro-2′,3′-dideoxythymidine as Potential Anti-HIV Microbicides” (Molecules, 2022).
Where two headings read alike, the source gives them in different places.

Key:
sperm = test: Spermicidal activity (sperm viability and motility); assay type: cell-based; conditions: abstract; versus N-9 positive control
Method: In this study, several fatty acyl conjugates of nucleosides (5–8, 10–12, 15, and 16) were tested for their spermicidal activities. […] Detailed data analysis is available in the Supplementary Materials (Figure S2).
(§1) Human T lymphoblastoid cells (CCRF-CEM, ATCC No. CCL-119) were grown to 70% confluency in a culture medium. CCRF-CEM cells were incubated with 10 µM of the compounds and mixed with trypan blue (0.1%) to color the dead cells. The percentage of viability was calculated by using a Cellometer Auto T.4 (Nexcelom Bioscience). The cell viability against the vaginal cells (VK-2/E6E7) was conducted according to the previously reported procedure. The effect of conjugates on the sperm viability and mobility was evaluated as described previously.

[1] = Solubility (shake-flask, UV detection; organic solvents); assay type: physicochemical
Method: Solubility for 5 was investigated by the shake-flask methodology with UV-spectroscopic sample detection. To produce a saturated solution of 5, approximately 1 mg of solid material was added to 10 mL of an aqueous solution, which was adjusted to pH 2.3 with 0.5 M HCl. The sample was then sonicated in an ultrasonic bath for several hours (at room temperature) before being left to equilibrate for a period of approximately 3 days. The supernatant was then filtered under vacuum through a 0.2 µm PVDF filter plate, and the UV absorption spectrum of the sample was measured (after adjusting the pH of the solution to 11.8 with 0.5 M KOH). Molar absorption coefficients of 5 were obtained at pH 11.8 for 25 µM, 50 µM, and 100 µM solutions of 5, in order to quantify the concentration of the sample in the saturated supernatant. […] However, 5 was less soluble in DMSO (~4.1 mg/mL).

[2] = test system: human vaginal cells (VK-2/E6E7); test: Vaginal cell cytotoxicity (MTS assay); assay type: cell-based; conditions: 6 h incubation; 31-1000 µg/mL
Method: A commercially used spermicidal agent (N-9) and conjugate cytotoxicity was evaluated using immortalized human vaginal cells (VK-2/E6E7). […] Observed cytotoxicity from N-9 could be correlated with the generation of higher levels of cytokines by N-9.
as §1
Figure 2 (A) Dose–response curves of the vaginal cytotoxicity in VK-2 cells (MTS assay) for 5, 6, 8, and N-9 after 6 h incubations. (B) Proinflammatory cytokine (IL-1α) production in the VK-2 cells (ELISA) after a 6 h incubation in the presence of 5, 6, 8, and N-9.

Cytotoxicity assay (MTS) = assay type: cell-based; conditions: human, HeLa cells (ATCC CCL-2.1), Table 2; MTS; 50% effective concentration
[3] = test system: HIV-1 98USMSC5016 (C-Wild Type); test: PBMC multi-round infection assay, clinical isolate 98USMSC5016; assay type: cell-based; conditions: Human immunodeficiency virus 1
Method: (§2) Based on a preliminary screening, conjugates 5 and 8 were evaluated for their ability to inhibit a drug-resistant virus in a peripheral blood mononuclear cell (PBMC) assay. In this assay, FLT, 5, and 8 were tested against B- and C-wild type and A-17 and 4755–5 multidrug-resistant (MDR) clinical isolates of HIV-1, where compounds were incubated with PBMCs for 6 h and then washed off before the addition of the virus and further culture for 7 days.
(§3) For the assessment of compounds against the wild type (WT; R5; clones = 94US3393IN [B subtype] and 98USMSC5016 [C subtype]) and drug-resistant (clones = 4755−5 and A17) HIV-1 clinical isolates, PHA-P stimulated cells from at least two normal donors were pooled, diluted in fresh media, and plated in the interior wells of a 96-well round-bottom microplate. Pooling PBMCs from more than one donor was used to minimize the variability observed between the individual donors, which results from the quantitative and qualitative differences in HIV infection and overall response to the PHA and IL-2 of primary lymphocyte populations. Each plate contained virus/cell control wells (cells + virus), experimental wells (drug + cells + virus), and compound control wells (drug + media, no cells, necessary for MTS monitoring of cytotoxicity). Test drug dilutions were prepared in microtiter tubes, and each concentration was placed in appropriate wells. Following the addition of the drug dilutions to the PBMCs, a predetermined dilution of virus stock was then placed in each test well (final MOI ≅ 0.1). Because HIV-1 is not cytopathic to PBMCs, the same assay plate can be used for both the antiviral efficacy and cytotoxicity measurements. Compounds were incubated with virus and cells in a 96-well format for 6 h. The cells were then washed by removing 75% of the medium (150 μL) and replacing it with 150 μL of fresh (no drug) medium. The plates were then centrifuged (∼200 g) for 10 min, after which 150 μL of the medium was removed, and an additional 150 μL of fresh medium was added to each well and further incubated for 6 days or until peak reverse transcriptase (RT) activity was detected. A microtiter plate-based RT reaction was utilized. Incorporated radioactivity (counts per minute, CPM) was quantified using standard liquid scintillation techniques. Compound IC50 (50%, inhibition of virus replication) was calculated using statistical software and regression analysis. A cellular uptake study was conducted for fluorescence conjugates 23 and 24 using a previously published procedure with minor modifications. All of the experiments were conducted in triplicate.

[4] = pKa by dip-probe absorption spectroscopy (D-PAS); assay type: physicochemical; conditions: methanol-water co-solvent, Yasuda-Shedlovsky extrapolation
Method: Physicochemical properties including pKa, Log D, and solubility were determined for 5 (as a model compound). […] It was not possible to measure the partition coefficient (Log P) of the fatty acyl derivatives of FLT and AZT in a standard n-octanol/water mixture because of the insolubility of the compounds in water. The cLog P value was calculated as 5.23 using ChemDraw. […] Since most of 5 is in its neutral form, the Log D value will correspond to the Log P value.
The pKa for 5 was determined using dip-probe absorption spectroscopy (D-PAS). The sample was initially titrated in a fast titration between pH 1.8 and pH 12.1 at concentrations of 33–49 µM under aqueous conditions. Precipitation of the sample from the solution was observed below approximately pH 11. The sample was subsequently titrated under methanol–water co-solvent conditions in two triple titrations from pH 12.2 to pH 3.7 at concentrations of 31–49 µM. The methanol ratio varied from to 25.5–50.8%. No precipitation of the sample from the solution was observed under this condition. The pKa was determined from the spectroscopic data by the Yasuda–Shedlovsky extrapolation of the individual obtained results.

HIV-1 A-17 MDR (B-NNRTI) = test: PBMC multi-round infection assay, resistant isolate A-17; assay type: cell-based
Method: as §2, §3

[5] = Human immunodeficiency virus 1, PBMC

With `Cc1cn([C@H]2C[C@H](F)[C@@H](COC(=O)CCCCCCCCCCCN=[N+]=[N-])O2)c(=O)[nH]c1=O` [Compound 5, 3′-fluoro-2′,3′-dideoxy-5′-O-(12-azidododecanoyl)thymidine] the “effect on sperm viability” value (sperm) was “did not alter vaginal cell and sperm viability”, the solubility ([1]; DMSO, organic solvent or mixture, DMSO, read-out: solubility in DMSO) was roughly 4100 µg/mL and the solubility ([1]; aqueous solution adjusted to pH 2.3, pH 2.3, aqueous buffer, thermodynamic from solid, shake-flask, UV detection, read-out: aqueous solubility (upper limit)) was no more than 0.51 µM. For the same compound, the solubility ([1]; ethanol, organic solvent or mixture, ethanol, read-out: solubility in ethanol) was greater than 30000 µg/mL, the “solubility in water/methanol (60:40)” value ([1]; mixture of water/methanol (60:40)) was “completely soluble” and the “cytotoxicity to vaginal cells” value [2] was “did not show significant cytotoxic effects”. The EC50 (Cytotoxicity assay (MTS)) was 1.6 mM, the IC50 [3] was 2.1 nM and the IC90 [3] was 8.6 nM. It also gave a pKa [4] of 9.67, an IC50 (HIV-1 A-17 MDR (B-NNRTI); [5]) of 4.4 nM and an IC90 (HIV-1 A-17 MDR (B-NNRTI); [5]) of 14.1 nM. For the same compound, the “fold more potent than FLT against A-17” value (HIV-1 A-17 MDR (B-NNRTI); versus FLT IC50) was “at least 6 fold”.
